Assay results from patent US12077607B2, “Functional and therapeutic effects of PAR4 cleavage by cathepsin G” (UNIVERSITY OF UTAH RESEARCH FOUNDATION, priority 2021, dated 2024).
“Also recorded” adds a separate entry of the source.

What was measured:
PAR4-B (SEQ ID NO: 7) = biological target: T1, PAR4-B (SEQ ID NO: 7) (Homo sapiens, UniProt Q96RI0); test: PAR4 peptide cleavage analysis by LC-MS/MS, PAR4-B; type: biochemical; conditions: thrombin 100 U/mL or 100 nM, CatG 400 nM, 37° C.
T1 construct: purchased BIOMATIK (Wilmington, DE, USA); host or cells: chemical synthesis
Experimental: PAR-4 Peptide and Cleavage Analysis. PAR4 synthetic peptides were incubated with protease, snapped frozen, and sent for mass spectrometry analysis. PAR-4B ([…]; SEQ ID NO: 7) and PAR-4C ([…]; SEQ ID NO: 8) were synthesized by BIOMATIK (Wilmington, DE, USA). PAR4-B and PAR4-C were incubated with vehicle, thrombin (100 nM) or cathepsin G (400 nM) at 37° C. for 15 minutes to an hour depending on the experimental condition. After digestion with the indicated protease, reactions were snapped frozen and sent to the University of Arizona, Analytical and Biological Mass Spectrometry Core Facility (Tucson, Arizona) for analysis. LC-MS/MS analysis was done on a Q Exactive Plus mass spectrometer (Thermo Fisher Scientific, San Jose, CA) equipped with an EASY-Spray nanoESI source. Peptides (500 ng) were injected onto an Acclaim Pepmap 100 trap column (75 micron ID x 2 cm, Thermo Scientific), washed for 10 min at 3% mobile phase B (acetonitrile, 0.1% formic acid, mobile phase A consisting of water and 0.1% formic acid) then eluted onto an Acclaim PepMap RSLC analytical column (75 micron ID x 25 cm, Thermo Scientific using a 3-20% gradient of B over 40 min, 20-50% solvent B over 5 min, 50-95% of solvent B over 5 min, then a hold of solvent 95% B for 10 min, and finally a return to 3% solvent B for 1 min, then a hold at 3% B for 10 min. Flow rates were 300 nL/min using a Dionex Ultimate 3000 RSLCnano System (Thermo Scientific). […] The peptide identification results were further analyzed with Scaffold Q+S v 4.8.7 (Proteome Software Inc., Portland OR), a program that relies on various search engine results (i.e.: Sequest, X!Tandem, MASCOT) and which uses Bayesian statistics to reliably identify more spectra9.

PAR4-C (SEQ ID NO: 8) = biological target: T2, PAR4-C (SEQ ID NO: 8) (Homo sapiens, UniProt Q96RI0); test: PAR4 peptide cleavage analysis by LC-MS/MS, PAR4-C; type: biochemical; conditions: CatG 400 nM, 37° C., 15 minutes; thrombin
T2 construct: purchased BIOMATIK (Wilmington, DE, USA); host or cells: chemical synthesis
Experimental: PAR-4 Peptide and Cleavage Analysis. PAR4 synthetic peptides were incubated with protease, snapped frozen, and sent for mass spectrometry analysis. PAR-4B ([…]; SEQ ID NO: 7) and PAR-4C ([…]; SEQ ID NO: 8) were synthesized by BIOMATIK (Wilmington, DE, USA). PAR4-B and PAR4-C were incubated with vehicle, thrombin (100 nM) or cathepsin G (400 nM) at 37° C. for 15 minutes to an hour depending on the experimental condition. After digestion with the indicated protease, reactions were snapped frozen and sent to the University of Arizona, Analytical and Biological Mass Spectrometry Core Facility (Tucson, Arizona) for analysis. LC-MS/MS analysis was done on a Q Exactive Plus mass spectrometer (Thermo Fisher Scientific, San Jose, CA) equipped with an EASY-Spray nanoESI source. […] The peptide identification results were further analyzed with Scaffold Q+S v 4.8.7 (Proteome Software Inc., Portland OR), a program that relies on various search engine results (i.e.: Sequest, X!Tandem, MASCOT) and which uses Bayesian statistics to reliably identify more spectra9.

dog washed platelets = test: Platelet aggregation of dog washed platelets; type: cell-based; conditions: 1 U/mL human thrombin, 1 μM human CatG or 1 mM RA-11mer
From the text: Animal studies. Mouse platelets were isolated as previously described from C57BL/6 mice (Denorme et al., Blood. 2020; 135(6):429-440). Dog platelets were isolated from whole blood drawn into ACD using a similar isolation procedure as for human platelets. All animal studies were approved by the University of Utah Institutional Animal Care and Use Committee (18-10012).
Platelet and neutrophil isolation. Platelets and neutrophils were isolated as previously described (Yost et al., J Clin Invest. 2016; 126(10):3783-3798). Platelet isolation from dogs, rats and mice was approved by the IACUC. Platelet activation and aggregation were performed as previously described (Manne et al., Blood. 2020; 136(11): 1317-1329).
Platelet isolation, aggregation, and activation. Human washed platelets were prepared and resuspended in Tyrode's Buffer at 2×10^8/mL as described (Edelstein et al., Nat Med. 2013; 19(12):1609-1616). For human and dog platelet comparisons, platelets were prepared using a modified human platelet protocol with final concentrations of […] (Cayman Chemical, Ann Arbor, MI, USA) used during centrifugation steps. Centrifugations after Tyrode's washes was decreased to 1,250×g as described in Cremer et al., PLOS One. 2019; 14(11): e0224891. Platelet aggregation was measured under stirring conditions at 37° C. using a PAP-8E aggregometer after treatment with the following agonists: arachidonic acid (Bio/Data Corporation, Horsham, PA, USA), cathepsin G, elastase, proteinase 3 (Athens Research Group), α-thrombin (Sigma, St. Louis, MO, USA), PAR-1 peptide (SFLLRN) (GL Biochem, China). P-selectin and PAC-1 were measured as previously described (Yee et al., J Thromb Haemost. 2006; 4(9):2043-2050; Tourdot et al., Arterioscler Thromb Vasc Biol. 2014; 34(12):2644-2650).

T1 sequence (Q96RI0 36-58 limits assumed): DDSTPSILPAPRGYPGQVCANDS
T2 sequence (Q96RI0 57-78 limits assumed): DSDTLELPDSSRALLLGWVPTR

thrombin
cleavage of PAR4-B peptide (PAR4-B (SEQ ID NO: 7)): cleaved by thrombin between amino acids Arg47 and Gly48
cleavage of PAR4-B peptide (PAR4-B (SEQ ID NO: 7); listed as Thrombin): proteolyzed virtually all
cleavage of PAR4-C peptide (PAR4-C (SEQ ID NO: 8)): failed to cleave
platelet aggregation, species comparison: dogs (dog washed platelets): induced platelet aggregation

CatG: serine protease cathepsin G released by activated neutrophils
cleavage of PAR4-B peptide (PAR4-B (SEQ ID NO: 7)): largely intact; also recorded: little cleavage
cleavage of PAR4-C peptide (PAR4-C (SEQ ID NO: 8)): cleavage between Ser67 (S67)-Arg68 (R68)
platelet aggregation, species comparison: dogs (dog washed platelets): induced platelet aggregation; also recorded: not as responsive
